Here are results for 20 molecules from US5510478A, “2-arylamidothiazole derivatives with CNS activity” (American Home Products Corporation, priority 1994, dated 1996).

The target in one data set is T1, M1 receptor (rat cortex) (Rattus norvegicus, UniProt P08482).
T1 construct: from tissue; host or cells: rat brain cortex
T1 sequence (P08482 1-460): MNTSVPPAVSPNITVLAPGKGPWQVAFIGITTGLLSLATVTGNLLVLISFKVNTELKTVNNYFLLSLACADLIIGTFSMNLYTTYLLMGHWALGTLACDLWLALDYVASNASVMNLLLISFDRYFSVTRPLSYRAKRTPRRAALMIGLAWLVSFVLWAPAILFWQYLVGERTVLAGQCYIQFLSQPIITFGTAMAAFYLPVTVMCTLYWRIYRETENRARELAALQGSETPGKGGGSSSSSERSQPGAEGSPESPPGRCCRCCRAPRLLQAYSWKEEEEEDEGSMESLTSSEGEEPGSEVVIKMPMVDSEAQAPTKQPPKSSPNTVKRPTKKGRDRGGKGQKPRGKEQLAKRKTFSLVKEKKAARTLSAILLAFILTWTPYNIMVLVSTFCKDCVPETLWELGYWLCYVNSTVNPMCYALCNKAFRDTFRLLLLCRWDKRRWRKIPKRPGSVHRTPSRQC
Description: M1 [3H]pirenzepine binding in rat cortex. The note with it: for inhibition at 1 µM: read-out: M1 3H PZ binding in rat cortex at 1 μM, % inhibition.

Data set [1] concerns the target T2, M2 receptor (rat cerebellum) (Rattus norvegicus, UniProt P10980).
T2 sequence (P10980 1-466): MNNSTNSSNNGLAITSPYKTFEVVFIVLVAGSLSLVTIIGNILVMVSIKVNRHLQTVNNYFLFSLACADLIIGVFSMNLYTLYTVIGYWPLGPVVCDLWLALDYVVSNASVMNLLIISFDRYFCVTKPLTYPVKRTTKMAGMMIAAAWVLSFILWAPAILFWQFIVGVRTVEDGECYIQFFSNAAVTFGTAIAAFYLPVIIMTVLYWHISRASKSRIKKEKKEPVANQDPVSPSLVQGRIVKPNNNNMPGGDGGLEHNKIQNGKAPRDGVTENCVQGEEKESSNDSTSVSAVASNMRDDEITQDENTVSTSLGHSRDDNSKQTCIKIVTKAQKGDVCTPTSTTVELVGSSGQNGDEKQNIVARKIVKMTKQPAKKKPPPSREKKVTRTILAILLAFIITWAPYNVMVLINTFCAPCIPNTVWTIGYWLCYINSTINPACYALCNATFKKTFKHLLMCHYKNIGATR
Description: biochemical. Conditions: read-out: M2 3H QNB binding in rat cerebellum, IC50.

Data set [2] has as its system Male CFW mice (scopolamine-induced hyperactivity). Description: Reversal of scopolamine-induced hyperactivity in mouse swim tank. Conditions: ip, 5 min, 0.3 mg/kg scopolamine.HBr, swim distance, read-out: minimum effective dose (MED), reversing the hyperactivity of scopolamine treated animals. It is filed as in vivo. Here is the method: The compound of Example 1 was also tested in accordance with the procedure of Symons et al, Soc. Neuroscience Abstracts 12:2, 897 (1986) in which Male CFW mice, 25 to 35 grams in weight are given the test compound in suitable vehicle plus 0.3 mg/kg scopoolamine.HBr in suitable vehicle, i.p.(3 groups of 12 animals each) or vehicle alone (1 group of 12 animals ) or vehicle plus scopolamine. HBr (1 group of 12 animals). The rates are placed in a swim tank, individually, containing 10 cm H2 O for a period of 5 minutes and the distance each animal swims is recorded.

In data set [3] the test system is Sprague-Dawley male rats (scopolamine-disrupted performance). Description: Eight arm radial maze, reversal of scopolamine disrupted rat performance. It is filed as in vivo. Conditions: ip, scopolamine HBr 0.3 mg/kg s.c., test compound i.p., read-out: minimum effective dose (MED), reversal of scopolamine disrupted rat performance. The method, then:
The compound of Example 1 was also tested in the eight arm radial maze test procedure in which Sprague-Dawley male rats at 85% of their free feeding weight are trained to obtain two food pellets from food cups placed at the ends of four of the eight arms radiating from a circular central area of the maze, in a five minute period. After training to a level of error (return to a previously entered arm is error) equal to or less than 2, the rats performance is disrupted with scopolamine HBr (0.3 mg/kg, s.c.) and test compound dosage (i.p.). The number of errors are then determined and compared with control receiving scopolamine alone.

In data set [4] the test system is 5-HT1A serotonin receptor. The note with it: standard for anxiolytic activity; cited from earlier work.
Another data set has as its target T3, dopamine D-2 receptor (Rattus norvegicus, UniProt P61169).
T3 construct: from tissue; host or cells: limbic brain tissue (homogenate)
Description: Dopamine D-2 receptor binding, 3H-spiroperidol, limbic brain tissue. Here is the method:
High affinity for the dopamine D-2 receptor was established by the standard experimental test procedure of Fields, et al., Brain Res., 136, 578 (1977) and Yamamura et al., eds., Neurotransmitter Receptor Binding, Raven Press, N.Y. (1978) wherein homogenized limbic brain tissue is incubated with ^3 H-spiroperidol and various concentrations of test compound, filtered and washed and shaken with Hydrofluor scintillation cocktail (National Diagnostics) and counted in a Packard 460 CD scintillation counter.

The test system of data set [5] is patients with mild to moderate Alzheimer's Disease. The note with it: cited from earlier work; for memory improvement in patients (in words): mild to moderate Alzheimer's Disease.
The subject of data set [6] is 5-HT1A serotonin receptor. Description: Serotonin 5-HT1A receptor binding, displacement of [3H]8-OHDPAT. The text has this: High affinity for the serotonin 5-HT1A receptor was established by testing the claimed compound's ability to displace ^3 H!8-OHDPAT (dipropylaminotetralin) from the 5-HT1A serotonin receptor following the procedure of Hall et al., J. Neurochem. 44, 1685 (1985). […] The anxiolytic activity of buspirone is believed to be, at least partially, due to its 5-HT1A receptor affinity (Vander Maclen et al., Eur. J. Pharmacol. 1986, 129 (1-2) 133-130).

The conditions of data set [7]: in vivo; cited from earlier work.

Like-named read-outs stand apart in the source and are kept apart here.

T3 sequence (P61169 whole entry): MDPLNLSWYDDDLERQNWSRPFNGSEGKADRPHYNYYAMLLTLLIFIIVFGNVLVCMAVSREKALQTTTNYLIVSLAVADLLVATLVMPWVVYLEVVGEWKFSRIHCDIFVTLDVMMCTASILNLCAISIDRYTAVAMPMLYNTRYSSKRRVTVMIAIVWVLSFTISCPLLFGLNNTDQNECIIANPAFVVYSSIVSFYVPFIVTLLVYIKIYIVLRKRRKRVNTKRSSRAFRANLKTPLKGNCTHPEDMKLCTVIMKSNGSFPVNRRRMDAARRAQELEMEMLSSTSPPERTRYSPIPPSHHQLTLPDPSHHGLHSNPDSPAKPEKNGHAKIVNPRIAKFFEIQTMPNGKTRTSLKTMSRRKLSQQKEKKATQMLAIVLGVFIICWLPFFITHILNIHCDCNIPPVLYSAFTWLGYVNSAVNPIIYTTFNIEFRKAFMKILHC

As for `CN(C)CCOC(=O)c1csc(NC(=O)c2cc(C(C)(C)C)c(O)c(C(C)(C)C)c2)n1` [Example 1, 2-3.5.-Bis(1.1-dimethylethyl)-4-hydroxybenzoyl!amino!-4-thiazolecarboxylic acid 2-(dimethylamino)ethyl ester], the IC50 is 54 nM on M1 receptor (rat cortex) (rat cortex, [3H]pirenzepine, read-out: M1 3H PZ binding in rat cortex, IC50) and 3400 nM in data set [1]. The minimal effective dose in [2] and in data set [3] was 3 mg/kg in each case. Take `CC(C)(C)c1cc(C(=O)Nc2nc(C(=O)OCCN3CC4CCC(CC4)C3)cs2)cc(C(C)(C)C)c1O` [Example 4, 2-3.5-Bis(1.1-dimethylethyl)-4-hydroxybenzoyl!amino !-4-thiazolecarboxylic acid 2-(3-azabicyclo 3.2.2.!non-3-yl)ethyl ester]: the inhibition at 1 µM on M1 receptor (rat cortex) is 90.6%. As to `O=C1CC2(CCCC2)CC(=O)N1CCCCN1CCN(c2ncccn2)CC1` [buspirone], the “5-HT1A receptor affinity (in words)” value in [4] was “potent affinity”. Take `O=C(Cc1csc(NC(=O)c2ccc(F)cc2)n1)NCCCCN1CC2CCC(CC2)C1` [Example 12, N-4-(3-Azabicyclo 3.2.2!non-3-yl)butyl-2-(4-fluorobenzoyl)amino!-4-thiazoleacetamide]: the inhibition at 1 µM on M1 receptor (rat cortex) stood at 57%. On to `CC(C)(C)c1cc(C(=O)Nc2nc(C(=O)NCCCCN3CC4CCC(CC4)C3)cs2)cc(C(C)(C)C)c1O` [Example 6, N-4-(3-Azabicyclo 3.2.21non-3-yl)butyl!-2-3,5-bis(1,1-dimethylethyl)-4-hydroxybenzoyl!amino!-4-thiazolecarboxamide], for which the inhibition at 1 µM on M1 receptor (rat cortex) turned out to be 86%.

As for `CC(C)(C)c1cc(C(=O)Nc2nc(C(=O)NCCN3CC4CCC(CC4)C3)cs2)cc(C(C)(C)C)c1O` [Example 3], the inhibition at 1 µM at M1 receptor (rat cortex) was determined as 70.5%. On to `O=C(Cc1csc(NC(=O)c2ccc(F)cc2)n1)OCCN1CCN(c2ncccn2)CC1` [Example 16, 2-(4-Fluorobenzoyl)amino!-4-thiazoleacetic acid 2-4-(2-pyrimidinyl)-1-piperazinyl!ethyl ester], for which, on dopamine D-2 receptor, the inhibition at 1 µM came out at 34%. Turning to `CC(C)(C)c1cc(C(=O)Nc2nc(C(=O)NC3CN4CCC3CC4)cs2)cc(C(C)(C)C)c1O` (stereo not drawn) [Example 7], the inhibition at 1 µM on M1 receptor (rat cortex) turned out to be 104%. Regarding `Nc1c2c(nc3ccccc13)CCCC2` [tacrine], in data set [5] (especially at the higher doses where it is most effective), the “adverse side effects (in words)” value is “adverse side effects”. The “memory improvement in patients (in words)” value in data set [5] is on record as “improvement in memory”.

On to `CN(C)CCNC(=O)c1csc(NC(=O)c2cc(C(C)(C)C)c(O)c(C(C)(C)C)c2)n1` [Example 2, 2-3,5,-Bis(1.1-dimethylethyl)-4-hydroxybenzoyl!amino!-N-2-(dimethylamino)ethyl!-4-thiazolecarboxamide], for which, at M1 receptor (rat cortex) (1 μM, rat cortex, [3H]pirenzepine), the inhibition at 1 µM came out at 98.6%. With `O=C(Nc1nc(C(=O)NCCCCN2CC3CCC(CC3)C2)cs1)c1ccc(O)cc1` [Example 11, N-4-(3-Azabicyclo 3.2.2!non-3-yl)butyl-2-4-hydroxybenzoyl!amino!-4-thiazolecarboxamide], the inhibition at 1 µM on M1 receptor (rat cortex) was 63.9%. `O=C(Nc1nc(C(=O)NCCCN2CC3CCC(CC3)C2)cs1)c1ccc(O)cc1` [Example 10, N-3-(3- Azabicyclo 3.2.2!non-3-yl)propyl-2-4-hydroxybenzoyl!amino-4-thiazolecarboxamide]: on M1 receptor (rat cortex), the inhibition at 1 µM was found to be 58.7%.

Turning to `CC(C)(C)c1cc(C(=O)Nc2nc(C(=O)NCCCN3CC4CCC(CC4)C3)cs2)cc(C(C)(C)C)c1O` [Example 5, N-3-(3-Azabicyclo 3.2.2!non-3-yl)propyl-2-3.5-bis(1.1-dimethylethyl)-4-hydroxybenzoyl!amino!-4-thiazolecarboxamide], the inhibition at 1 µM at M1 receptor (rat cortex) came out at 78%. For the molecule `COc1ccccc1N1CCN(CCCOC(=O)Cc2csc(NC(=O)c3cc(C(C)(C)C)c(O)c(C(C)(C)C)c3)n2)CC1` [Example 14, 2-3,5-Bis(1,1-dimethylethyl)-4-hydroxyphenyl!carbonyl!amino!-4-thiazoleacetic acid 3-4-(2-methoxyphenyl)-1-piperazinyl!propyl ester], on dopamine D-2 receptor, the inhibition at 1 µM stood at 91%. Also, the “5-HT1A Binding (% Inhibition at 1 μM)” value in data set [6] stood at 89%. For `O=C(Nc1nc(C(=O)NCCCCN2CC3CCC(CC3)C2)cs1)c1ccc(OCc2ccccc2)cc1` [Example 9], the inhibition at 1 µM on M1 receptor (rat cortex) was 62%. For `COc1ccccc1N1CCN(CCOC(=O)Cc2csc(NC(=O)c3cc(C(C)(C)C)c(O)c(C(C)(C)C)c3)n2)CC1` [Example 15], at dopamine D-2 receptor, the inhibition at 1 µM was determined as 51%. With `COc1ccccc1N1CCN(CCCOC(=O)Cc2csc(NC(=O)c3ccc(F)cc3)n2)CC1` [Example 13, 2-(4-Fluorobenzoyl)amino!-4-thiazoleacetic acid 3-4-(2-methoxyphenyl)-1-piperazinyl!propyl ester], the inhibition at 1 µM at dopamine D-2 receptor came to 81%. In addition, the “5-HT1A Binding (% Inhibition at 1 μM)” value in data set [6] was determined as 100%. Consider `O=C(Nc1nc(C(=O)NC2CN3CCC2CC3)cs1)c1ccc(OCc2ccccc2)cc1` (stereo not drawn) [Example 8], for which the inhibition at 1 µM on M1 receptor (rat cortex) was 85.8%.

For `CC(C)(C)c1cc(C(=O)Nc2nc(CC(=O)NCCN3CCN(c4ncccn4)CC3)cs2)cc(C(C)(C)C)c1O` [Example 17], the inhibition at 0.1 µM on dopamine D-2 receptor (0.1 μM) was determined as 5%. For `COC(=O)C1=CCCN(C)C1` [arecoline], the “half-life (in words)” value in [7] is recorded as “short half-life”. Also, the “memory improvement in patients (in words)” value in [5] is listed as “memory improvement”.

By IC50 is commonly meant the point on the concentration scale where inhibition reaches its midpoint. For orientation: inhibition means the drop in the measured response relative to a control, in per cent.
